Measurements from patent US20210317134A1, “UBIQUITIN-SPECIFIC-PROCESSING PROTEASE 7 (USP7) MODULATORS AND USES THEREOF” (RAPT THERAPEUTICS, INC., priority 2019, published 2021).

Target: USP7 (Homo sapiens, UniProt Q93009)
Assay: USP7 inhibitory potency (Table 1)
Format: biochemical

Chain of USP7 (Q93009 whole entry): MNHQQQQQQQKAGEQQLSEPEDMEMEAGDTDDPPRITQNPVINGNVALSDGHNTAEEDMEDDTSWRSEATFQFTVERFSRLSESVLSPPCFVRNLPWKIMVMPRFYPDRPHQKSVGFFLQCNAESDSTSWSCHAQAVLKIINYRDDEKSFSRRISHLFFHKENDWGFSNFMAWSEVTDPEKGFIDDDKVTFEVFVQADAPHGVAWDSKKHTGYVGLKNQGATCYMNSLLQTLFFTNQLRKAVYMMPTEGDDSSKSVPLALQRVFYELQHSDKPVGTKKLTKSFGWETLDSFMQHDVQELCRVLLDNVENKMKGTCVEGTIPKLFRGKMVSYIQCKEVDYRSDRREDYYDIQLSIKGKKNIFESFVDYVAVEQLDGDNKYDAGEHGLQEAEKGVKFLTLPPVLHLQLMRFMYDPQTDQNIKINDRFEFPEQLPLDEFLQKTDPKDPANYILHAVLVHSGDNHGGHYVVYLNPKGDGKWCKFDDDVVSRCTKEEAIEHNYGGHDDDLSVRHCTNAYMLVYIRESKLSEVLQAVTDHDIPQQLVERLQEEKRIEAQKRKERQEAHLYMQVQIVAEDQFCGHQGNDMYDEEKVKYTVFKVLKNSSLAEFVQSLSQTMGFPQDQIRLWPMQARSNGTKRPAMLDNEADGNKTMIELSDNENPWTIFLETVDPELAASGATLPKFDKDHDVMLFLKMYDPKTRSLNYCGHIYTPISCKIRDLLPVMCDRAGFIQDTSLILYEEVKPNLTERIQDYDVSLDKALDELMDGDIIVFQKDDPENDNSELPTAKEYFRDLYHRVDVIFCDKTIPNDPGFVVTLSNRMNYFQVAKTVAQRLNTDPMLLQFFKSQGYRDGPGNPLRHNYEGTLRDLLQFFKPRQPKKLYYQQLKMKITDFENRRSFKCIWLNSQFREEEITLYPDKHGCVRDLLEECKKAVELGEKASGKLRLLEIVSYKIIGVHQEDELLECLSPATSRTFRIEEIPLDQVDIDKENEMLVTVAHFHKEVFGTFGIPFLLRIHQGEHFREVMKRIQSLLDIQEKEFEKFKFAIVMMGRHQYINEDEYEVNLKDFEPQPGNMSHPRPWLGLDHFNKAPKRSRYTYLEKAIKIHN

First: OCC1Cc2nccc(-c3cc(Cl)cc4c3O[C@@H](c3onc5c3CNCC5)C4)c2O1 (stereo partly drawn) [(7-((R)-5-chloro-2-(4,5,6,7-tetrahydroisoxazolo[4,3-c]pyridin-3-yl)-2,3-dihydrobenzofuran-7-yl)-2,3-dihydrofuro[3,2-b]pyridin-2-yl)methanol]
Second: CN(C)[C@@H]1CCc2noc([C@H]3Cc4cc(Cl)cc(-c5ccnc6cc(CO)sc56)c4O3)c2C1 [(7-((R)-5-chloro-2-((R)-5-(dimethylamino)-4,5,6,7-tetrahydrobenzo[c]isoxazol-3-yl)-2,3-dihydrobenzofuran-7-yl)thieno[3,2-b]pyridin-2-yl)methanol]
The IC50 of the first is higher: 10000 to 30000 nM for the first, under 1000 nM for the second.

`CCC(O)(CO)c1cc2nccc(-c3cc(Cl)cc4c3O[C@@H](C(=O)N3CCNCC3)C4)c2s1` (stereo partly drawn) [((2R)-5-chloro-7-(2-(1,2-dihydroxybutan-2-yl)thieno[3,2-b]pyridin-7-yl)-2,3-dihydrobenzofuran-2-yl)(piperazin-1-yl)methanone] and `O=C([C@H]1Cc2cc(Cl)cc(-c3ccnc4cc(C(O)(CO)CCl)sc34)c2O1)N1CCNCC1` (stereo partly drawn) [((2R)-5-chloro-7-(2-(1-chloro-2,3-dihydroxypropan-2-yl)thieno[3,2-b]pyridin-7-yl)-2,3-dihydrobenzofuran-2-yl)(piperazin-1-yl)methanone] cannot be ordered by IC50: under 1000 nM for the first, under 1000 nM for the second.

`CC(O)(CO)c1cc2nccc(-c3cc(Cl)cc4c3O[C@@H](C(=O)N3CCNCC3)C4)c2s1` (stereo partly drawn) [((2R)-5-chloro-7-(2-(1,2-dihydroxypropan-2-yl)thieno[3,2-b]pyridin-7-yl)-2,3-dihydrobenzofuran-2-yl)(piperazin-1-yl)methanone] and `CC(O)c1cc2nccc(-c3cc(Cl)cc4c3O[C@@H](C(=O)N3CCNCC3)C4)c2s1` (stereo partly drawn) [((2R)-5-chloro-7-(2-(1-hydroxyethyl)thieno[3,2-b]pyridin-7-yl)-2,3-dihydrobenzofuran-2-yl)(piperazin-1-yl)methanone] cannot be ordered by IC50: under 1000 nM for the first, under 1000 nM for the second.

`CCC(CO)c1cc2nccc(-c3cc(Cl)cc4c3O[C@@H](C(=O)N3CCNCC3)C4)c2s1` (stereo partly drawn) [((2R)-5-chloro-7-(2-(1-hydroxybutan-2-yl)thieno[3,2-b]pyridin-7-yl)-2,3-dihydrobenzofuran-2-yl)(piperazin-1-yl)methanone] and `CC[C@@H](O)c1cc2nccc(-c3cc(Cl)cc4c3O[C@@H](C(=O)N3CCNCC3)C4)c2s1` [((R)-5-chloro-7-(2-((R)-1-hydroxypropyl)thieno[3,2-b]pyridin-7-yl)-2,3-dihydrobenzofuran-2-yl)(piperazin-1-yl)methanone] cannot be ordered by IC50: under 1000 nM for the first, under 1000 nM for the second.

`O=C([C@H]1Cc2cc(Cl)cc(-c3ccnc4cc(C(O)CCl)sc34)c2O1)N1CCNCC1` (stereo partly drawn) [((2R)-5-chloro-7-(2-(2-chloro-1-hydroxyethyl)thieno[3,2-b]pyridin-7-yl)-2,3-dihydrobenzofuran-2-yl)(piperazin-1-yl)methanone] and `CC[C@H](O)c1cc2nccc(-c3cc(Cl)cc4c3O[C@@H](C(=O)N3CCNCC3)C4)c2s1` [((R)-5-chloro-7-(2-((S)-1-hydroxypropyl)thieno[3,2-b]pyridin-7-yl)-2,3-dihydrobenzofuran-2-yl)(piperazin-1-yl)methanone] cannot be ordered by IC50: under 1000 nM for the first, under 1000 nM for the second.

`CC(O)Cc1cc2nccc(-c3cc(Cl)cc4c3O[C@@H](C(=O)N3CCNCC3)C4)c2s1` (stereo partly drawn) [((2R)-5-chloro-7-(2-(2-hydroxypropyl)thieno[3,2-b]pyridin-7-yl)-2,3-dihydrobenzofuran-2-yl)(piperazin-1-yl)methanone] and `CC(O)c1ccc2c(-c3cc(Cl)cc4c3O[C@@H](C(=O)N3CCNCC3)C4)ccnc2c1` (stereo partly drawn) [((2R)-5-chloro-7-(7-(1-hydroxyethyl)quinolin-4-yl)-2,3-dihydrobenzofuran-2-yl)(piperazin-1-yl)methanone] cannot be ordered by IC50: under 1000 nM for the first, under 1000 nM for the second.

`CCC(O)C1Cc2nccc(-c3cc(Cl)cc4c3O[C@@H](C(=O)N3CCNCC3)C4)c2C1` (stereo partly drawn) [((2R)-5-chloro-7-(6-(1-hydroxypropyl)-6,7-dihydro-5H-cyclopenta[b]pyridin-4-yl)-2,3-dihydrobenzofuran-2-yl)(piperazin-1-yl)methanone] and `CC1(CO)Cc2nccc(-c3cc(Cl)cc4c3O[C@@H](C(=O)N3CCNCC3)C4)c2C1` (stereo partly drawn) [((2R)-5-chloro-7-(6-(hydroxymethyl)-6-methyl-6,7-dihydro-5H-cyclopenta[b]pyridin-4-yl)-2,3-dihydrobenzofuran-2-yl)(piperazin-1-yl)methanone] cannot be ordered by IC50: under 1000 nM for the first, under 1000 nM for the second.

Compared with `CCC(O)c1cc2ncnc(-c3cc(Cl)cc4c3O[C@@H](C(=O)N3CCNCC3)C4)c2s1` (stereo partly drawn) [((2R)-5-chloro-7-(6-(1-hydroxypropyl)thieno[3,2-d]pyrimidin-4-yl)-2,3-dihydrobenzofuran-2-yl)(piperazin-1-yl)methanone], `CCC(O)c1ccc2c(-c3cc(Cl)cc4c3O[C@@H](C(=O)N3CCNCC3)C4)ccnc2c1` (stereo partly drawn) [((2R)-5-chloro-7-(7-(1-hydroxypropyl)quinolin-4-yl)-2,3-dihydrobenzofuran-2-yl)(piperazin-1-yl)methanone] is higher in IC50: under 1000 nM for the first, 1000 to 10000 nM for the second.

`CCCC1(CO)Cc2nccc(-c3cc(Cl)cc4c3O[C@@H](C(=O)N3CCNCC3)C4)c2C1` (stereo partly drawn) [((2R)-5-chloro-7-(6-(hydroxymethyl)-6-propyl-6,7-dihydro-5H-cyclopenta[b]pyridin-4-yl)-2,3-dihydrobenzofuran-2-yl)(piperazin-1-yl)methanone] and `CCC1(CO)Cc2nccc(-c3cc(Cl)cc4c3O[C@@H](C(=O)N3CCNCC3)C4)c2C1` (stereo partly drawn) [((2R)-5-chloro-7-(6-ethyl-6-(hydroxymethyl)-6,7-dihydro-5H-cyclopenta[b]pyridin-4-yl)-2,3-dihydrobenzofuran-2-yl)(piperazin-1-yl)methanone] fall in the same range of IC50: 1000 to 10000 nM for the first, 1000 to 10000 nM for the second.

`CN(C)C1CCCN(C(=O)[C@H]2Cc3cc(Cl)cc(-c4ccnc5cc(CO)sc45)c3O2)C1` (stereo partly drawn) [((R)-5-chloro-7-(2-(hydroxymethyl)thieno[3,2-b]pyridin-7-yl)-2,3-dihydrobenzofuran-2-yl)(3-(dimethylamino)piperidin-1-yl)methanone] and `CN(C)[C@@H]1CCN(C(=O)[C@H]2Cc3cc(Cl)cc(-c4ccnc5cc(CO)sc45)c3O2)C1` [((R)-5-chloro-7-(2-(hydroxymethyl)thieno[3,2-b]pyridin-7-yl)-2,3-dihydrobenzofuran-2-yl)((R)-3-(dimethylamino)pyrrolidin-1-yl)methanone] cannot be ordered by IC50: under 1000 nM for the first, under 1000 nM for the second.

First: CN(C)[C@H]1CCN(C(=O)[C@H]2Cc3cc(Cl)cc(-c4ccnc5cc(CO)sc45)c3O2)C1 [((R)-5-chloro-7-(2-(hydroxymethyl)thieno[3,2-b]pyridin-7-yl)-2,3-dihydrobenzofuran-2-yl)((S)-3-(dimethylamino)pyrrolidin-1-yl)methanone]
Second: O=C([C@H]1Cc2cc(Cl)cc(-c3ccnc4cc(CO)sc34)c2O1)N1CC[C@H](O)C1 [((R)-5-chloro-7-(2-(hydroxymethyl)thieno[3,2-b]pyridin-7-yl)-2,3-dihydrobenzofuran-2-yl)((S)-3-hydroxypyrrolidin-1-yl)methanone]
The IC50 of the first is lower: 1000 to 10000 nM for the first, 10000 to 30000 nM for the second.

First: CN[C@H]1CCCN(C(=O)[C@H]2Cc3cc(Cl)cc(-c4ccnc5cc(CO)sc45)c3O2)C1 [((R)-5-chloro-7-(2-(hydroxymethyl)thieno[3,2-b]pyridin-7-yl)-2,3-dihydrobenzofuran-2-yl)((S)-3-(methylamino)piperidin-1-yl)methanone]
Second: CN[C@@H]1CCCN(C(=O)[C@H]2Cc3cc(Cl)cc(-c4ccnc5ccsc45)c3O2)C1 [((R)-5-chloro-7-(thieno[3,2-b]pyridin-7-yl)-2,3-dihydrobenzofuran-2-yl)((R)-3-(methylamino)piperidin-1-yl)methanone]
The IC50 of the first is lower: under 1000 nM for the first, 10000 to 30000 nM for the second.

`CN(C)C1CCCN(C(=O)[C@H]2Cc3cc(Cl)cc(-c4ccnc5ccsc45)c3O2)C1` (stereo partly drawn) [((R)-5-chloro-7-(thieno[3,2-b]pyridin-7-yl)-2,3-dihydrobenzofuran-2-yl)(3-(dimethylamino)piperidin-1-yl)methanone] and `CN(C)[C@@H]1CCN(C(=O)[C@H]2Cc3cc(Cl)cc(-c4ccnc5ccsc45)c3O2)C1` [((R)-5-chloro-7-(thieno[3,2-b]pyridin-7-yl)-2,3-dihydrobenzofuran-2-yl)((R)-3-(dimethylamino)pyrrolidin-1-yl)methanone] cannot be ordered by IC50: under 1000 nM for the first, under 1000 nM for the second.

First: CN(C)[C@H]1CCN(C(=O)[C@H]2Cc3cc(Cl)cc(-c4ccnc5ccsc45)c3O2)C1 [((R)-5-chloro-7-(thieno[3,2-b]pyridin-7-yl)-2,3-dihydrobenzofuran-2-yl)((S)-3-(dimethylamino)pyrrolidin-1-yl)methanone]
Second: CN[C@H]1CCCN(C(=O)[C@H]2Cc3cc(Cl)cc(-c4ccnc5ccsc45)c3O2)C1 [((R)-5-chloro-7-(thieno[3,2-b]pyridin-7-yl)-2,3-dihydrobenzofuran-2-yl)((S)-3-(methylamino)piperidin-1-yl)methanone]
The IC50 of the first is higher: 1000 to 10000 nM for the first, under 1000 nM for the second.

First: O=C([C@H]1Cc2cc(Cl)cc(-c3ccnc4ccsc34)c2O1)N1CCN2CCCC2C1 (stereo partly drawn) [((R)-5-chloro-7-(thieno[3,2-b]pyridin-7-yl)-2,3-dihydrobenzofuran-2-yl)(hexahydropyrrolo[1,2-a]pyrazin-2(1H)-yl)methanone]
Second: O=C([C@H]1Cc2cc(Cl)cc(-c3ccnc4cc(CCN5C(=O)CCC5=O)sc34)c2O1)N1CCNCC1 [(R)-1-(2-(7-(5-chloro-2-(piperazine-1-carbonyl)-2,3-dihydrobenzofuran-7-yl)thieno[3,2-b]pyridin-2-yl)ethyl)pyrrolidine-2,5-dione]
The IC50 of the first is higher: 1000 to 10000 nM for the first, under 1000 nM for the second.

`O=C([C@H]1Cc2cc(Cl)cc(-c3ccnc4cc(N5C(=O)CCC5=O)ccc34)c2O1)N1CCNCC1` [(R)-1-(4-(5-chloro-2-(piperazine-1-carbonyl)-2,3-dihydrobenzofuran-7-yl)quinolin-7-yl)pyrrolidine-2,5-dione] and `CN(C)Cc1ncoc1[C@H]1Cc2cc(Cl)cc(-c3ccnc4ccsc34)c2O1` [(R)-1-(5-(5-chloro-7-(thieno[3,2-b]pyridin-7-yl)-2,3-dihydrobenzofuran-2-yl)oxazol-4-yl)-N,N-dimethylmethanamine] cannot be ordered by IC50: under 1000 nM for the first, under 1000 nM for the second.

Work on `CC[C@@H](O)c1cc2ncnc(-c3cc(Cl)cc4c3O[C@@H](c3onc5c3CNCC5)C4)c2s1` [(R)-1-(4-((R)-5-chloro-2-(4,5,6,7-tetrahydroisoxazolo[4,3-c]pyridin-3-yl)-2,3-dihydrobenzofuran-7-yl)thieno[3,2-d]pyrimidin-6-yl)propan-1-ol] yielded an IC50 of under 1000 nM.
